In US20250042876A1, “HERBICIDAL PYRAZOLE PYRIMIDINE COMPOUNDS” (SYNGENTA CROP PROTECTION AG, priority 2021, published 2025):

Columns and labels:
Assay type in all cases: in vivo
Settings in all cases: 250 g/ha, evaluated after 13 days
[1] = test system: Ipomoea hederacea (IPOHE); experiment: Pre-emergence herbicidal test, glasshouse
Experimental: (§1) Seeds of a variety of test species are sown in standard soil in pots Amaranthus palmeri (AMAPA), Amaranthus retoflexus (AMARE), Setaria faberi (SETFA), Echinochloa crus-galli (ECHCG), Ipomoea hederacea (IPOHE)). After cultivation for one day (pre-emergence) or after 8 days cultivation (post-emergence) under controlled conditions in a glasshouse (at 24/16° C., day/night; 14 hours light; 65% humidity), the plants are sprayed with an aqueous spray solution derived from the formulation of the technical active ingredient in acetone/water (50:50) solution containing 0.5% Tween 20 (polyoxyethelyene sorbitan monolaurate, CAS RN 9005-64-5). Compounds are applied at 250 g/ha unless otherwise stated. The test plants are then grown in a glasshouse under controlled conditions in a glasshouse (at 24/16° C., day/night; 14 hours light; 65% humidity) and watered twice daily. After 13 days for pre and post-emergence, the test is evaluated for the percentage damage caused to the plant. The biological activities are shown in the following table on a five-point scale (5=81-100%; 4=61-80%; 3=41-60%; 2=21-40%; 1=0-20%).

[2] = test system: Amaranthus palmeri (AMAPA); experiment: Pre-emergence herbicidal test, glasshouse
Experimental: as §1

[3] = test system: Echinochloa crus-galli (ECHCG); experiment: Pre-emergence herbicidal test, glasshouse
Experimental: as §1

[4] = test system: Amaranthus retoflexus (AMARE); experiment: Pre-emergence herbicidal test, glasshouse
Experimental: as §1

[5] = test system: Ipomoea hederacea (IPOHE); experiment: Post-emergence herbicidal test, glasshouse
Experimental: as §1

[6] = test system: Amaranthus palmeri (AMAPA); experiment: Post-emergence herbicidal test, glasshouse
Experimental: as §1

[7] = test system: Echinochloa crus-galli (ECHCG); experiment: Post-emergence herbicidal test, glasshouse
Experimental: as §1

[8] = test system: Amaranthus retoflexus (AMARE); experiment: Post-emergence herbicidal test, glasshouse
Experimental: as §1

Row | SMILES | IPOHE percentage damage caused to the plant (five-point scale) [1] | AMAPA percentage damage caused to the plant (five-point scale) [2] | ECHCG percentage damage caused to the plant (five-point scale) [3] | AMARE percentage damage caused to the plant (five-point scale) [4] | IPOHE percentage damage caused to the plant (five-point scale) [5] | AMAPA percentage damage caused to the plant (five-point scale) [6] | ECHCG percentage damage caused to the plant (five-point scale) [7] | AMARE percentage damage caused to the plant (five-point scale) [8]
1 | FC(F)(F)c1cc(Cc2ncc(Cl)cn2)n(-c2ccc(Cl)nc2)n1 [Compound 1.009] | 5 (5=81-100%) | 5 (5=81-100%) | 5 (5=81-100%) | 5 (5=81-100%) | 4 (4=61-80%) | 5 (5=81-100%) | 5 (5=81-100%) | 5 (5=81-100%)
2 | N#Cc1ccc(-n2nc(C#N)cc2Cc2ncc(Cl)cn2)cn1 [Compound 1.019] | 5 (5=81-100%) | 5 (5=81-100%) | 4 (4=61-80%) | 5 (5=81-100%) | 3 (3=41-60%) | 5 (5=81-100%) | 4 (4=61-80%) | 5 (5=81-100%)
3 | N#Cc1cc(Cc2ncc(Cl)cn2)n(-c2ccc(Cl)nc2)n1 [Compound 1.020] | 5 (5=81-100%) | 5 (5=81-100%) | 5 (5=81-100%) | 5 (5=81-100%) | 4 (4=61-80%) | 5 (5=81-100%) | 5 (5=81-100%) | 5 (5=81-100%)
4 | Clc1cnc(Cc2cc(I)nn2-c2ccc(Cl)nc2)nc1 [Compound 1.021] | 5 (5=81-100%) | 5 (5=81-100%) | 5 (5=81-100%) | 5 (5=81-100%) | 4 (4=61-80%) | 5 (5=81-100%) | 5 (5=81-100%) | 5 (5=81-100%)
5 | FC(F)(Cl)c1cc(Cc2ncc(Cl)cn2)n(-c2ccc(Cl)nc2)n1 [Compound 1.022] | 5 (5=81-100%) | 5 (5=81-100%) | 5 (5=81-100%) | 5 (5=81-100%) | 3 (3=41-60%) | 5 (5=81-100%) | 5 (5=81-100%) | 5 (5=81-100%)
6 | FC(F)(Cl)c1cc(Cc2ncc(Cl)cn2)n(-c2cnc(Cl)c(Cl)c2)n1 [Compound 1.023] | 5 (5=81-100%) | 5 (5=81-100%) | 5 (5=81-100%) | 5 (5=81-100%) | 3 (3=41-60%) | 5 (5=81-100%) | 4 (4=61-80%) | 5 (5=81-100%)
7 | Fc1ccc(-n2nc(C(F)(F)Cl)cc2Cc2ncc(Cl)cn2)cc1F [Compound 1.024] | 5 (5=81-100%) | 5 (5=81-100%) | 5 (5=81-100%) | 5 (5=81-100%) | 4 (4=61-80%) | 5 (5=81-100%) | 5 (5=81-100%) | 5 (5=81-100%)
